pEC50: −log10 of the molar value.

EC50 data for 17 molecules are collected here from US20250051355A1, “COMPOUNDS, COMPOSITIONS, AND METHODS” (ACONCAGUA BIO, INC., priority 2023, published 2025).

Assay [1] has as its target human calcitonin receptor (CTR) and RAMP3 (AMY3) (Homo sapiens, UniProt O60896+P30988). As to the kind of experiment: Amylin Receptor cAMP Assay II. To be noted: COS-7/AMY3 cells, cAMP dynamic 2 kit, read-out: Amylin Receptor cAMP Stimulation Activity: EC50. The format is cell-based. The gist of the method:
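COS-7 cells stably co-expressing human CTR and RAMP3 (AMY3) were treated with 4-fold serially diluted compounds at 2000 cells/well in HBSS with 20 mM HEPES, 0.5 mM IBMX and 0.1% casein for 30 min at 37 °C. cAMP was measured by HTRF (cAMP-d2 plus anti-cAMP cryptate, 1 h at RT) with reads at 665/615 nm.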

Assay [2] has as its target T1, human calcitonin receptor (CTR) (Homo sapiens, UniProt P30988).
T1 construct: expressed in transfected cells; host or cells: COS-7 (COS7-human CTR Clone #2)
T1 sequence (P30988 25-474): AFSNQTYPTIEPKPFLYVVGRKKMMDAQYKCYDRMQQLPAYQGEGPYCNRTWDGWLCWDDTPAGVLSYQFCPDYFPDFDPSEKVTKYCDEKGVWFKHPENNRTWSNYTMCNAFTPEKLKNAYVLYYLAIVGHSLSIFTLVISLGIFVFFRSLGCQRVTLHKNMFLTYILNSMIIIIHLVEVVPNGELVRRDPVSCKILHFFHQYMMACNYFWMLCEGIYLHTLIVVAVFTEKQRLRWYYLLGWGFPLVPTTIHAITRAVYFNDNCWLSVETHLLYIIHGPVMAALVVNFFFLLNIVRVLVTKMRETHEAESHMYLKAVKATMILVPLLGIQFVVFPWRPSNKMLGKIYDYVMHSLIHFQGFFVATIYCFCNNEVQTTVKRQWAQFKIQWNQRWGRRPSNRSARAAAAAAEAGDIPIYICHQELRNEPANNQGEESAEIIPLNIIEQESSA
As to the kind of experiment: Calcitonin receptor (CTR) cAMP Assay. The format is cell-based. The following applies: COS7-human CTR Clone #2 cells, cAMP dynamic 2 kit; read-out: Calcitonin Receptor cAMP Stimulation Activity: EC50. In a few lines: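 COS-7 cells stably expressing human CTR (2000 cells/well) treated with 4-fold serially diluted compounds in HBSS/20 mM HEPES/0.5 mM IBMX/0.1% casein, 30 min at 37° C. cAMP quantified by HTRF (cAMP-d2 plus anti-cAMP cryptate, 1 h RT), fluorescence read at 665 and 615 nm.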

Chain of human calcitonin receptor (CTR) and RAMP3 (AMY3) (O60896 24-148, one chain of several): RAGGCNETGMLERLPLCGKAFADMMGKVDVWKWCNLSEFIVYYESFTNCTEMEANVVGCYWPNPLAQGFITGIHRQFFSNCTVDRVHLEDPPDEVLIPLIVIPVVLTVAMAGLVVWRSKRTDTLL

Regarding `Cc1nnc(-c2c(CCC3CCOCC3)nc3c(c2-c2ccc4c(c2)oc(=O)n4Cc2ccc(C#N)cn2)S(=O)(=O)CC3C(C)C)o1` (stereo not shown) [Compound 129, 6-[(6-(3-isopropyl-6-(5-methyl-1,3,4-oxadiazol-2-yl)-1,1-dioxo-5-[2-(tetrahydro-2H-pyran-4-yl)ethyl]-1λ^6-thia-4-aza-7-indanyl}-2-oxo-1,3-benzoxazol-3-yl)methyl]nicotinonitrile], the pEC50 in assay [1] was 6.68; in assay [2] it was 8.35.

`Cc1nnc(-c2c(CCC3CCOCC3)nc3c(c2-c2ccc4nn(Cc5ccc(C#N)c(F)c5)cc4c2)C(=O)N2CCOC[C@@H]32)o1` [Compound 130, 4-[(5-((4aR,9aR)-7-(5-methyl-1,3,4-oxadiazol-2-yl)-9-oxo-6-[2-(tetrahydro-2H-pyran-4-yl)ethyl]-1,2,4,4a-tetrahydro-9H-3-oxa-5,9a-diazafluoren-8-yl}-2H-indazol-2-yl)methyl]-2-fluorobenzonitrile]: the pEC50 in assay [1] is 5.64; in assay [2], 6.73.

In the case of `Cc1nnc(-c2c(CCC3CCOCC3)nc3c(c2-c2cc4ccnc(NCc5ccc(C#N)nc5)c4s2)S(=O)(=O)CC3C(C)C)o1` (stereo not shown) [Compound 131, 5-[(2-(3-isopropyl-6-(5-methyl-1,3,4-oxadiazol-2-yl)-1,1-dioxo-5-[2-(tetrahydro-2H-pyran-4-yl)ethyl]-1λ^6-thia-4-aza-7-indanyl}-1-thia-6-aza-7-indenylamino)methyl]-2-pyridinecarbonitrile], the values for the pEC50 in assay [1] and in assay [2] were 5.83 and 6.48, respectively.

With `Cc1nnc(-c2c(CCC3CCOCC3)nc3c(c2-c2cc4ccnc(NCc5cnc(C#N)c(F)c5)c4s2)S(=O)(=O)CC3C(C)C)o1` (stereo not shown) [Compound 133, 3-fluoro-5-[(2-(3-isopropyl-6-(5-methyl-1,3,4-oxadiazol-2-yl)-1,1-dioxo-5-[2-(tetrahydro-2H-pyran-4-yl)ethyl]-1λ^6-thia-4-aza-7-indanyl}-1-thia-6-aza-7-indenylamino)methyl]-2-pyridinecarbonitrile], the pEC50 is 6.61 in assay [1] and 7.37 in assay [2].

For the molecule `Cc1nnc(-c2c(CCC3CCOCC3)nc3c(c2-c2cc4ccnc(NCc5ccc(C#N)c(F)n5)c4s2)S(=O)(=O)CC3C(C)C)o1` (stereo not shown) [Compound 134, 2-fluoro-6-[(2-(3-isopropyl-6-(5-methyl-1,3,4-oxadiazol-2-yl)-1,1-dioxo-5-[2-(tetrahydro-2H-pyran-4-yl)ethyl]-1-2-thia-4-aza-7-indanyl}-1-thia-6-aza-7-indenylamino)methyl]nicotinonitrile], the pEC50 was 5.83 in assay [1] and 6.63 in assay [2].

Take `Cc1nnc(-c2c(CCC3CCOCC3)nc3c(c2-c2ccc4c(c2)oc(=O)n4Cc2ccc(C#N)c(F)c2)C(=O)N2CCOCC32O)o1` (stereo not shown) [Compound 135, 4-[(6-(4a-hydroxy-7-(5-methyl-1,3,4-oxadiazol-2-yl)-9-oxo-6-[2-(tetrahydro-2H-pyran-4-yl)ethyl]-1,2,4,4a-tetrahydro-9H-3-oxa-5,9a-diazafluoren-8-yl}-2-oxo-1,3-benzoxazol-3-yl)methyl]-2-fluorobenzonitrile]: the values for the negative-log EC50 (pEC50) in assay [1] and in assay [2] were 6.78 and 8.27, respectively.

For `Cc1nnc(-c2c(CCC3CC(C)OC(C)C3)nc3c(c2-c2cc4ccnc(N[C@@H]5CCc6ncccc65)c4s2)S(=O)(=O)CC3C(C)C)o1` (stereo partly drawn) [Compound 136, N—(R)-4-aza-1-indanyl(2-(5-[2-(2,6-dimethyltetrahydro-2H-pyran-4-yl)ethyl]-3-isopropyl-6-(5-methyl-1,3,4-oxadiazol-2-yl)-1,1-dioxo-1λ^6-thia-4-aza-7-indanyl}-1-thia-6-aza-7-indenyl)amine], the negative-log EC50 (pEC50) in assay [1] is 6.51; in assay [2], 7.46.

Turning to `Cc1nnc(-c2c(CCC3CCOCC3)nc3c(c2-c2cc4ccnc(Nc5ccc(F)c(F)c5)c4s2)S(=O)(=O)CC3C(C)C)o1` (stereo not shown) [Compound 137], the pEC50 was 5.71 in assay [1] and 6.56 in assay [2].

For `Cc1nnc(-c2c(CCC3CCOCC3)nc3c(c2-c2cc4ccnc(Cc5ccc(F)c(F)c5)c4s2)S(=O)(=O)CC3C(C)C)o1` (stereo not shown) [Compound 138, 7-(7-[(3,4-difluorophenyl)methyl]-1-thia-6-aza-2-indenyl}-3-isopropyl-6-(5-methyl-1,3,4-oxadiazol-2-yl)-5-[2-(tetrahydro-2H-pyran-4-yl)ethyl]-1λ^6-thia-4-aza-1,1-indandione], the negative-log EC50 (pEC50) in assay [1] was 6.06; in assay [2], 6.94.

Consider `Cc1nnc(-c2c(CCc3ccc(F)cc3)nc3c(c2-c2cc4ccnc(N[C@@H]5CCc6ncccc65)c4s2)c(=O)n2n3CCC2)o1` [Compound 139, 9-(7-[(R)-4-aza-1-indanylamino]-1-thia-6-aza-2-indenyl}-11-[2-(p-fluorophenyl)ethyl]-10-(5-methyl-1,3,4-oxadiazol-2-yl)-2,6,12-triazatricyclo[6.4.0.0^2,6]dodeca-1(8),9,11-trien-7-one], for which the pEC50 in assay [1] is 6.82; in assay [2], 8.06.

For the molecule `Cc1nnc(-c2c(CCc3ccc(F)cc3)nc3c(c2-c2ccc4c(c2)oc(=O)n4C(C)c2ccc(C#N)c(F)c2)c(=O)n2n3CCC2)o1` (stereo not shown) [Compound 140, 2-fluoro-4-[1-(6-(11-[2-(p-fluorophenyl)ethyl]-10-(5-methyl-1,3,4-oxadiazol-2-yl)-7-oxo-2,6,12-triazatricyclo[6.4.0.0^2,6]dodeca-1(12),8,10-trien-9-yl}-2-oxo-1,3-benzoxazol-3-yl)ethyl]benzonitrile], the pEC50 in assay [1] was 8.06; in assay [2], 9.47.

Consider `Cc1nnc(-c2c(CCc3ccc(F)cc3)nc3c(c2-c2cnc4c(ccn4Cc4ccc(C#N)c(F)c4)c2)c(=O)n2n3CCC2)o1` [Compound 141, 2-fluoro-4-[(5-(11-[2-(p-fluorophenyl)ethyl]-10-(5-methyl-1,3,4-oxadiazol-2-yl)-7-oxo-2,6,12-triazatricyclo[6.4.0.0]dodeca-1(12),8,10-trien-9-yl}-1H-1,7-diazainden-1-yl)methyl]benzonitrile], for which the pEC50 was 7.13 in assay [1] and 8.35 in assay [2].

Take `Cc1nnc(-c2c(CCc3ccc(F)cc3)nc3c(c2-c2ccc4c(c2)oc(=O)n4Cc2ccc(C#N)cn2)c(=O)n2n3CCC2)o1` [Compound 142, 6-[(6-{11-[2-(p-fluorophenyl)ethyl]-10-(5-methyl-1,3,4-oxadiazol-2-yl)-7-oxo-2,6,12-triazatricyclo[6.4.0.0^2,6]dodeca-1(12),8,10-trien-9-yl}-2-oxo-1,3-benzoxazol-3-yl)methyl]nicotinonitrile]: the pEC50 in assay [1] is 7.23; in assay [2], 8.91.

As for `Cc1nnc(-c2c(CCC3CCOCC3)nc3c(c2-c2cnc4c(ccn4Cc4ccc(C#N)c(F)c4)c2)C(=O)N[C@H]3C(C)C)o1` [Compound 143, 4-[(5-{(S)-3-isopropyl-6-(5-methyl-1,3,4-oxadiazol-2-yl)-1-oxo-5-[2-(tetrahydro-2H-pyran-4-yl)ethyl]-2,4-diaza-7-indanyl}-1H-1,7-diazainden-1-yl)methyl]-2-fluorobenzonitrile], the pEC50 in assay [1] was 7.10; in assay [2] it was 8.20.

As to `Cc1nnc(-c2c(CCC34CCC(CC3)OC4)nc3c(c2-c2ccc4c(c2)oc(=O)n4Cc2ccc(C#N)cn2)c(=O)n2n3CCC2)o1` [Compound 144, 6-((6-[10-(5-methyl-1,3,4-oxadiazol-2-yl)-11-(2-(2-oxabicyclo[2.2.2]oct-4-yl)ethyl}-7-oxo-2,6,12-triazatricyclo[6.4.0.0^2,^6]dodeca-1(12),8,10-trien-9-yl]-2-oxo-1,3-benzoxazol-3-yl}methyl)nicotinonitrile], the values for the pEC50 in assay [1] and in assay [2] were 7.08 and 8.59, respectively.

Regarding `Cc1cc(-c2c(CCC3CCOCC3)nc3c(c2-c2ccc4c(c2)oc(=O)n4Cc2ccc(C#N)cn2)S(=O)(=O)N2CCC[C@@H]32)ccn1` [Compound 145, 6-[(6-((2S)-10-(2-methyl-4-pyridyl)-7,7-dioxo-11-[2-(tetrahydro-2H-pyran-4-yl)ethyl]-7λ^6-thia-6,12-diazatricyclo[6.4.0.0^2,6]dodeca-1(12),8,10-trien-9-yl}-2-oxo-1,3-benzoxazol-3-yl)methyl]nicotinonitrile], the pEC50 was 7.10 in assay [1] and 8.21 in assay [2].

`COc1ccnc(-c2c(CCC3CCOCC3)nc3c(c2-c2cc4ccnc(N[C@@H]5CCc6ncccc65)c4s2)S(=O)(=O)CC3C(C)C)n1` (stereo partly drawn) [Compound 146, N—(R)-4-aza-1-indanyl(2-(3-isopropyl-6-(4-methoxy-2-pyrimidinyl)-1,1-dioxo-5-[2-(tetrahydro-2H-pyran-4-yl)ethyl]-1λ^6-thia-4-aza-7-indanyl}-1-thia-6-aza-7-indenyl)amine]: the pEC50 in assay [1] was 7.23; in assay [2], 8.39.

In general, pEC50 refers to the EC50 on a negative log10 scale, so that one unit is a factor of ten.
